Like-named read-outs stand apart in the source and are kept apart here.
Legend:
[1] = target: GDP-bound KRAS wild-type protein (Homo sapiens, UniProt P01116); assay: Binding to KRAS by surface plasmon resonance (SPR), dissociation constant KD
How it was run: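 Measured at 30°C: SPR with GDP-loaded, E. coli-expressed biotin-Avi RAS captured (~100–300 RU), ascending 75 s compound injections, HBS pH 7.4 with GDP, MgCl2, 4% DMSO. KD from 1:1 fit.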

[2] = target: GDP-bound NRAS wild-type protein (Homo sapiens, UniProt P01111); assay: Binding to NRAS by surface plasmon resonance (SPR), KD and KD ratio to KRAS
How it was run: (§1)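 Affinity is measured by surface plasmon resonance at 30°C against captured, GDP-loaded RAS carrying a biotinylated Avi tag. Compounds are titrated by single-cycle kinetics, and KD comes from a 1:1 fit.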

HRAS wild-type protein = HRAS wild-type protein (Homo sapiens, UniProt P01112); assay: Binding to HRAS by surface plasmon resonance (SPR), KD and KD ratio to KRAS
How it was run: as §1

[3] = test system: human lung cancer strain NCI-H441; assay: NCI-H441 cell proliferation inhibitory activity (CellTiter-Glo, 4 days); format: cell-based; settings: read-out: NCl-H441 IC50
How it was run: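 Readout: […] after the ATP-based reagent. Compound: serial dilutions in dimethyl sulfoxide.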

[4] = ratio of KD for GDP-bound NRAS wild-type protein to KD for KRAS
[5] = ratio of KD for HRAS wild-type protein to KD for KRAS
[6] = Single Cycle Kinetics, 1:1 binding model
[7] = ratio of KD with respect to GDP-bound NRAS wild-type protein to KD with respect to KRAS
[8] = ratio of KD with respect to HRAS wild-type protein to KD with respect to KRAS
[9] = 50% proliferation inhibitory concentration, four days

Chain of GDP-bound KRAS wild-type protein (P01116 1-188 isoform P01116-2): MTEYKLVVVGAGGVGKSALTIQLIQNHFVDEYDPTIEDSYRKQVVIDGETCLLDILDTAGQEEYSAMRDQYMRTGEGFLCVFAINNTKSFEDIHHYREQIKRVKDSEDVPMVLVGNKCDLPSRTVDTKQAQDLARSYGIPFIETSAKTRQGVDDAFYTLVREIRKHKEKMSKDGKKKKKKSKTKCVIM
Chain of GDP-bound NRAS wild-type protein (P01111 whole entry): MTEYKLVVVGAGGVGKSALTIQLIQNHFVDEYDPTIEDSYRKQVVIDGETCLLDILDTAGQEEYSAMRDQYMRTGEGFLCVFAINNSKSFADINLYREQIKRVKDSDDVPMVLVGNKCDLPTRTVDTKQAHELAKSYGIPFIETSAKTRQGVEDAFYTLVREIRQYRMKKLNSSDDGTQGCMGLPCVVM
Chain of HRAS wild-type protein (P01112 whole entry): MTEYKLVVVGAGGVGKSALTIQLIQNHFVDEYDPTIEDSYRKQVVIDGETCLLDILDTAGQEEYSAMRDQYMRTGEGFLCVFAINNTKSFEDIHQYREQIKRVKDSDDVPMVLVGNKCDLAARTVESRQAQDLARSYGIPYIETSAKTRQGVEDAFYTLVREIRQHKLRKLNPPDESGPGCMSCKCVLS

| Kd ([1]; Single Cycle Kinetics) | IC50 ([3]; NCI-H441 cells, 4 days) | Kd ([1]; 1:1 binding model) | Kd [1, 6] | IC50 [3, 9] | Structure (SMILES) | NRAS /KRAS [2, 4] | HRAS /KRAS (HRAS wild-type protein; [5]) | NRAS /KRAS [2, 7] | HRAS /KRAS (HRAS wild-type protein; [8]) |
| --- | --- | --- | --- | --- | --- | --- | --- | --- | --- |
| 0.82 nM | 11 nM |  |  |  | CCO[C@@H]1C[C@H]2C(=O)OC3(CCC3)C(=O)N(C)[C@@H](C3CCCC3)C(=O)N(C)[C@H](C(=O)N(C)C)CC(=O)N(C)[C@@H]([C@H](C)OC)C(=O)N[C@@H]([C@@H](C)CC)C(=O)N3CCC[C@H]3C(=O)N(C)[C@H]3C/C=C\CCN(C3=O)[C@@H](Cc3ccc(C)cc3)C(=O)N(C)CC(=O)N[C@@H](CCc3ccc(C(F)(F)F)c(OC)c3)C(=O)N2C1 [PP3395] | A (a compound having 10 or more and less than 20 is denoted as A) | B (a compound having 3 or more and less than 10 is denoted as B) |  |  |
| 0.057 nM | 6.1 nM |  |  |  | CCC[C@H]1C(=O)N[C@@H]([C@@H](C)CC)C(=O)N(C)CC(=O)N(C)[C@H]2C/C=C\CCN(C2=O)[C@@H](Cc2ccc(C)cc2)C(=O)N(C)CC(=O)N[C@@H](CCc2ccc(C(F)(F)F)c(Cl)c2)C(=O)N2CC[C@H](OC)[C@H]2C(=O)N(C)C2(CCC2)C(=O)N(C)[C@@H](C2CCCC2)C(=O)N(C)[C@H](C(=O)N(C)C)CC(=O)N1C [PP3237] | A (a compound having 10 or more and less than 20 is denoted as A) | B (a compound having 3 or more and less than 10 is denoted as B) |  |  |
|  | 9.4 nM | 0.21 nM |  |  | CCC[C@H]1C(=O)N[C@@H]([C@@H](C)CC)C(=O)N2C[C@@H](OC)C[C@H]2C(=O)N(C)[C@H]2C/C=C\CCN(C2=O)[C@@H](Cc2ccc(C)cc2)C(=O)N(C)CC(=O)N[C@@H](CCc2cc(F)c(C(F)(F)F)c(F)c2)C(=O)N2C[C@H](OCC)C[C@H]2C(=O)NC2(CC(C)(C)C2)C(=O)N(C)[C@@H](C2CCCC2)C(=O)N(C)[C@H](C(=O)N(C)C)CC(=O)N1C [PP2556] | A (a compound having 10 or more and less than 20 is denoted as A) | B (a compound having 3 or more and less than 10 is denoted as B) |  |  |
|  | 95.2 nM | 2.6 nM |  |  | CCC(CC)[C@H]1C(=O)N(C)[C@H](C(=O)N(C)C)CC(=O)N(C)[C@@H](COC)C(=O)N[C@@H]([C@@H](C)CC)C(=O)N(C2CC2)CC(=O)N(C)[C@H]2C/C=C\CCN(C2=O)[C@@H](CC2CCC(F)(F)CC2)C(=O)N(C)CC(=O)N[C@@H](CCc2cc(F)c(C(F)(F)F)c(F)c2)C(=O)N2C[C@H](OC3CCCC3)C[C@H]2C(=O)NC2(CC(C)(C)C2)C(=O)N1C [PP2627] | A (a compound having 10 or more and less than 20 is denoted as A) | A (a compound having 10 or more and less than 20 is denoted as A) |  |  |
|  |  |  | 0.13 nM | 48.3 nM | CCO[C@@H]1C[C@H]2C(=O)NC3(CCC3)C(=O)N(C)[C@@H](C3CCCC3)C(=O)N(C)[C@H](C(=O)N3CCCC3)CC(=O)N(C)[C@@H](CC)C(=O)N[C@@H]([C@@H](C)CC)C(=O)N(C)CC(=O)N(C)[C@H]3C/C=C\CCN(C3=O)[C@@H](CC3CCC(F)(F)CC3)C(=O)N(C)CC(=O)N[C@@H](CCc3cc(F)c(C(F)(F)F)c(F)c3)C(=O)N2C1 [PP1442] |  |  | A (a compound having 10 or more and less than 20 is denoted as A) | A (a compound having 10 or more and less than 20 is denoted as A) |
|  | 180 nM | 1.8 nM |  |  | CCCOC[C@H]1C(=O)N[C@@H]([C@@H](C)CC)C(=O)N(C)CC(=O)N(C)[C@H]2C/C=C\CCN(C2=O)[C@@H](CC2CCCCC2)C(=O)N(C)CC(=O)N[C@@H](CCc2cc(F)c(C(F)(F)F)c(F)c2)C(=O)N2C[C@H](OCC)C[C@H]2C(=O)NC2(CC(C)(C)C2)C(=O)N(C)[C@@H](C(CC)CC)C(=O)N(C)[C@H](C(=O)N(C)C)CC(=O)N1C [PP2501] | AA (a compound having 20 or more is denoted as AA) | A (a compound having 10 or more and less than 20 is denoted as A) |  |  |
| 0.7 nM | 29.8 nM |  |  |  | CCC[C@H]1C(=O)N[C@@H](C2CCCC2)C(=O)N(C)CC(=O)N(C)[C@H]2C/C=C\CCN(C2=O)[C@@H](Cc2ccc(C)cc2)C(=O)N(C)CC(=O)N[C@@H](CCc2ccc(C(F)(F)F)c(OC)c2)C(=O)N2CC3(CC3)C[C@H]2C(=O)NC2(CCC2)C(=O)N(C)[C@@H](C(CC)CC)C(=O)N(C)[C@H](C(=O)N(C)C)CC(=O)N1C [PP3430] | AA (a compound having 20 or more is denoted as AA) | A (a compound having 10 or more and less than 20 is denoted as A) |  |  |
| 1.1 nM | 34.3 nM |  |  |  | CCCC[C@H]1C(=O)N[C@@H]([C@@H](C)CC)C(=O)N(C2CC2)CC(=O)N(C)[C@H]2C/C=C\CCN(C2=O)[C@@H](Cc2ccc(C(F)(F)F)cc2)C(=O)N(C)CC(=O)N[C@@H](CCc2ccc(C(F)(F)F)c(OC)c2)C(=O)N2C[C@H](OCC)C[C@H]2C(=O)OC2(CCC2)C(=O)N(C)[C@@H](C2CCCC2)C(=O)N(C)[C@H](C(=O)N(C)C)CC(=O)N1C [PP3366] | A (a compound having 10 or more and less than 20 is denoted as A) | A (a compound having 10 or more and less than 20 is denoted as A) |  |  |
| 0.73 nM | 23.8 nM |  |  |  | CCCO[C@@H]1C[C@H]2C(=O)NC3(CC(C)(C)C3)C(=O)N(C)[C@@H](C3CCCC3)C(=O)N(C)[C@H](C(=O)N(C)CC)CC(=O)N(C)[C@@H](COCC)C(=O)N[C@@H]([C@@H](C)CC)C(=O)N3CCC[C@H]3C(=O)N(C)[C@H]3C/C=C\CCN(C3=O)[C@@H](Cc3ccc(C(F)(F)F)cc3)C(=O)N(C)CC(=O)N[C@@H](CCc3ccc(C(F)(F)F)c(OC)c3)C(=O)N2C1 [PP3413] | AA (a compound having 20 or more is denoted as AA) | A (a compound having 10 or more and less than 20 is denoted as A) |  |  |
|  |  |  | 0.3 nM | 82 nM | CC[C@H](C)[C@@H]1NC(=O)[C@H](CC2CC2)N(C)C(=O)C[C@@H](C(=O)N(C)C)N(C)C(=O)[C@H](C2CCCC2)N(C)C(=O)C2(CCC2)NC(=O)[C@H](CCC(F)F)N(C)C(=O)[C@H](CCc2cc(F)c(C(F)(F)F)c(F)c2)NC(=O)CN(C)C(=O)[C@H](Cc2ccc(C(F)(F)F)cc2)N2CC/C=C\C[C@@H](C2=O)N(C)C(=O)CN(C)C1=O [PP1402] |  |  | A (a compound having 10 or more and less than 20 is denoted as A) | A (a compound having 10 or more and less than 20 is denoted as A) |
|  | 21.3 nM | 0.29 nM |  |  | CCOC[C@H]1C(=O)N[C@@H]([C@@H](C)CC)C(=O)N(C)CC(=O)N(C)[C@H]2C/C=C\CCN(C2=O)[C@@H](Cc2ccc(C)cc2)C(=O)N(C)CC(=O)N[C@@H](CCc2ccc(C(F)(F)F)c(OC)c2)C(=O)N2C[C@H](OCC)C[C@H]2C(=O)NC2(CC(C)(C)C2)C(=O)N(C)[C@@H](C2CCCC2)C(=O)N(C)[C@H](C(=O)N(CC)CC)CC(=O)N1C [PP2406] | A (a compound having 10 or more and less than 20 is denoted as A) | A (a compound having 10 or more and less than 20 is denoted as A) |  |  |
|  |  |  | 1.1 nM | 305 nM | CCO[C@@H]1C[C@H]2C(=O)NC3(CCC3)C(=O)N(C)[C@@H](C3CCCC3)C(=O)N(C)[C@H](C(=O)N(C)C)CC(=O)N(C)[C@@H](CC3CCCC3)C(=O)N[C@@H]([C@@H](C)CC)C(=O)N(C)CC(=O)N(C)[C@H]3C/C=C\CCN(C3=O)[C@@H](Cc3ccc(F)cc3)C(=O)N(C)CC(=O)N[C@@H](CCc3ccc4sccc4c3)C(=O)N2C1 [PP1390] |  |  | A (a compound having 10 or more and less than 20 is denoted as A) | A (a compound having 10 or more and less than 20 is denoted as A) |
|  |  |  | 0.69 nM | 112 nM | CCO[C@@H]1C[C@H]2C(=O)NC3(CCC3)C(=O)N(C)[C@@H](C(CC)CC)C(=O)N(C)[C@H](C(=O)N3CCCC3)CC(=O)N(C)[C@@H](C)C(=O)N[C@@H]([C@@H](C)CC)C(=O)N(C)CC(=O)N(C)[C@H]3C/C=C\CCN(C3=O)[C@@H](CC3CCCCC3)C(=O)N(C)CC(=O)N[C@@H](CCc3cc(F)c(C(F)(F)F)c(F)c3)C(=O)N2C1 [PP1434] |  |  | A (a compound having 10 or more and less than 20 is denoted as A) | A (a compound having 10 or more and less than 20 is denoted as A) |
| 0.17 nM | 14.1 nM |  |  |  | CCCN(C)C(=O)[C@@H]1CC(=O)N(C)[C@@H](CC(C)C)C(=O)N[C@@H]([C@@H](C)CC)C(=O)N(C)CC(=O)N(C)[C@H]2C/C=C\CCN(C2=O)[C@@H](Cc2ccc(C(F)(F)F)cc2)C(=O)N(C)CC(=O)N[C@@H](CCc2cc(F)c(C(F)(F)F)c(F)c2)C(=O)N2C[C@H](OCC)C[C@H]2C(=O)N[C@]2(C[C@H](OC)C2)C(=O)N(C)[C@@H](C2CCCC2)C(=O)N1C [PP3353] | A (a compound having 10 or more and less than 20 is denoted as A) | A (a compound having 10 or more and less than 20 is denoted as A) |  |  |
|  |  |  | 0.037 nM | 3.5 nM | CCO[C@@H]1C[C@H]2C(=O)NC3(CCCC3)C(=O)N(C)[C@@H](C3CCCC3)C(=O)N(C)[C@H](C(=O)N(C)C)CC(=O)N(C)[C@@H](CC)C(=O)N[C@@H]([C@@H](C)CC)C(=O)N(C)CC(=O)N(C)[C@H]3CC[C@@H](C)CN(C3=O)[C@@H](Cc3ccc(C(F)(F)F)cc3)C(=O)N(C)CC(=O)N[C@@H](CCc3ccc(C(F)(F)F)c(Cl)c3)C(=O)N2C1 [PP1376] |  |  | B (a compound having 3 or more and less than 10 is denoted as B) | B (a compound having 3 or more and less than 10 is denoted as B) |

From patent EP4603105A1, “PHARMACEUTICAL COMPOSITION CONTAINING CYCLIC COMPOUND HAVING SELECTIVE KRAS INHIBITORY EFFECT AGAINST HRAS AND NRAS” (CHUGAI SEIYAKU KABUSHIKI KAISHA, priority 2022, dated 2024)
